From patent US5795954A, “Factor VIIa inhibitors from Kunitz domain proteins” (Genentech, Inc., priority 1994, dated 1998)
Like-named read-outs stand apart in the source and are kept apart here. Positions of bridges follow the written chain, without caps; N, C: chain ends. No end group written: not given here.

Key:
Type in all cases: biochemical
[1] = test system: normal human plasma, clotting initiated by TF membranes; assay: tissue factor initiated prothrombin time (PT) assay
Protocol: FIG. 6. Prolongation of clotting time in the PT assay in normal human plasma. […] The uninhibited clotting time was 48 sec.
Clotting times were performed using the ACL 300 Research Coagulation Analyzer. For the prothrombin time (PT) assays, the incubation time was set at 120 sec and acquisition time at 120 to 600 sec depending on the expected outcome of the assay. Membranes from 293 cells expressing full length TF (Paborsky, L. R. et al., Biochemistry 28: 8072-8077 [1989]) were premixed with CaCl2. The sample (plasma and inhibitor) and reagent (CaCl2 /TF) were automatically mixed together after a 2 min incubation at 37° C. The clotting time was determined by optical assessment. The total incubation time of inhibitor with plasma before addition of CaCl2 /TF was ca. 5 min. Final concentrations were 2 to 20 μM inhibitor, 3.7 nM TF (0.9 μg/ml by protein content), 22.5 mM CaCl2, and 50% plasma in a total volume of 160 μL.

[2] = test system: normal human plasma, clotting initiated by ellagic acid; assay: activated partial thromboplastin time (APTT) assay; settings: ca. 7 μM inhibitor
Protocol: FIG. 7. Prolongation of clotting time in the APTT assay in normal human plasma. […] The uninhibited clotting time was 31 sec.
For the activated partial thromboplastin time (APTT) assays, the activation time was set at 120 sec and acquisition time at 300 to 600 sec depending on the expected outcome of the assay. Citrated normal human plasma and inhibitor were incubated together. The sample (plasma and inhibitor) and activator (Instrumentation Laboratories Ellagic acid/Phospholipid mix Test Reagent) were automatically pipetted and incubated together for 2 min at 37° C., then CaCl2 was added and clotting time determined by means of optical assessment. The total incubation time of inhibitor with plasma was ca. 3 min before addition of activator, and 5 min before addition of CaCl2.

[3] = molecular target: T1, TF.cndot.FVIIa (Homo sapiens, UniProt P08709); assay: TF·FVIIa enzyme inhibition assay, apparent equilibrium dissociation constant (Ki*)
T1 construct: is generated by proteolysis of a single peptide bond from its zymogen Factor VII (FVII); purchased Haematologic Technologies Inc. (Essex Jct., Vt.); host or cells: TF1-243 made in house in E. coli
Protocol: Aliquots (25 μL) from each well of a microtiter plate containing the serially diluted inhibitors were transferred into new microtiter plates, each containing a different protease (100 μL) in the appropriate buffer. The proteases tested (protease concentration, buffer, substrate) were FVIIa (10 nM, Buffer A, 0.7 mM S2366), FXIa (1.0 nM, Buffer B containing 1 mg/ml BSA, 0.7 mM S2366), plasma kallikrein (3.5 nM, Buffer B, 0.5 mM S2302), and plasmin (15 nM, Buffer B, 1 mM S2251).

[4] = molecular target: T2, FXa (Homo sapiens, UniProt P00742); assay: FXa enzyme inhibition assay (Ki*)
T2 construct: purchased Haematologic Technologies Inc. (Essex Jct., Vt.)
Protocol: (§1) To aliquots of serial diluted inhibitor, either activated protein C, thrombin, FXa, FXIa, FXIIa, plasma kallikrein or plasmin were added. After incubation and addition of the appropriate substrate, plots of fractional activity versus inhibitor concentration were generated as described in Example 3.
(§2) After incubation of the substrate/inhibitor mixes at room temperature for 1-3 h, the appropriate substrate (20 μL) was added, and the absorbance at 405 nm was monitored. Controls lacking inhibitor and enzyme were assayed to measure the uninhibited and substrate hydrolysis rates, respectively. Plots of the fractional rate versus inhibitor concentration were fit by nonlinear regression analysis to equation 1 and apparent equilibrium dissociation constants (Ki *) were determined. […] The concentrations of activated protein C, thrombin and plasmin were based upon those of the supplier.

[5] = molecular target: thrombin (Homo sapiens, UniProt P00734); assay: thrombin enzyme inhibition assay (Ki*)
Protocol: as §1, §2

[6] = molecular target: T3, FXIIa (Homo sapiens, UniProt P00748); assay: FXIIa enzyme inhibition assay (Ki*)
T3 construct: purchased Enzyme Research Laboratories, Inc. (South Bend, Ind.)
T3 sequence (P00748 373-615 limits assumed): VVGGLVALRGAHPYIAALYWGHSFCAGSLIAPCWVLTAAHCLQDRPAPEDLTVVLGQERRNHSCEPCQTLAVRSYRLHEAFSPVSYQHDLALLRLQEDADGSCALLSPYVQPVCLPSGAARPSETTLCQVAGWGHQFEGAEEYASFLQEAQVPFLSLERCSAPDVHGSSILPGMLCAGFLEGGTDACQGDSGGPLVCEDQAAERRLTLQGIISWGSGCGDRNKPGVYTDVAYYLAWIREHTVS
T3 sequence (P00748 20-372 limits assumed): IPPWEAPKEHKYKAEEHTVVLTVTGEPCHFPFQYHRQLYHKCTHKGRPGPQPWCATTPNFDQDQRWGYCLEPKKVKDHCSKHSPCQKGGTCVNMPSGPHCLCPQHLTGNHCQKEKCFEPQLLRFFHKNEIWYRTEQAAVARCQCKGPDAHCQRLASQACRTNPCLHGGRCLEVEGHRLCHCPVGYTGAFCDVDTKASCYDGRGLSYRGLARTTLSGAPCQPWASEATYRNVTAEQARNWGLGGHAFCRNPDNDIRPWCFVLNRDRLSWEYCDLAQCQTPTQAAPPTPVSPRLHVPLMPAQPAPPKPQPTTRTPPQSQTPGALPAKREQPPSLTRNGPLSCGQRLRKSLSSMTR
Protocol: as §1, §2

[7] = molecular target: T4, activated protein C (Homo sapiens, UniProt P04070); assay: activated protein C enzyme inhibition assay (Ki*)
T4 construct: purchased Haematologic Technologies Inc. (Essex Jct., Vt.)
Protocol: as §1, §2

[8] = equilibrium conditions, read-out: apparent Ki* with TF.cndot.FVIIa (FIG. 4)

T1 sequence (P08709 213-466 limits assumed): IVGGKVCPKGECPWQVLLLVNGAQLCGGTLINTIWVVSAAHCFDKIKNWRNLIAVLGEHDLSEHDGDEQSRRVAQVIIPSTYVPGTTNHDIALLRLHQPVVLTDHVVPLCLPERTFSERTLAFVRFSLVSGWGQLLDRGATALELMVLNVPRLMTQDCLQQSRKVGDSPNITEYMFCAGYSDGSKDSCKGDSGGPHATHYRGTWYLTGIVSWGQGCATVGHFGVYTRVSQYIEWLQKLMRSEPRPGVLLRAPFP
T1 sequence (P08709 61-212 limits assumed): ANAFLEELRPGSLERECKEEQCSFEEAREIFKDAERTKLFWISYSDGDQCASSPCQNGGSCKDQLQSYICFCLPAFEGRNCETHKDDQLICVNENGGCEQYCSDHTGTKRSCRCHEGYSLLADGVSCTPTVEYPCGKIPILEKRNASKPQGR
T1 sequence (P13726 33-275 partner limits assumed): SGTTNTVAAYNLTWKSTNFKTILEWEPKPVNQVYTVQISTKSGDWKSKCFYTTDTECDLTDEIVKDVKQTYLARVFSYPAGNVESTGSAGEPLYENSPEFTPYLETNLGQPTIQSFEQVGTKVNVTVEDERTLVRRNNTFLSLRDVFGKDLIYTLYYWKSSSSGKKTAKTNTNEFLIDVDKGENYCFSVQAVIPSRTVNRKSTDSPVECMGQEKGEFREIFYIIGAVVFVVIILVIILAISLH
T2 sequence (P00742 235-488 limits assumed): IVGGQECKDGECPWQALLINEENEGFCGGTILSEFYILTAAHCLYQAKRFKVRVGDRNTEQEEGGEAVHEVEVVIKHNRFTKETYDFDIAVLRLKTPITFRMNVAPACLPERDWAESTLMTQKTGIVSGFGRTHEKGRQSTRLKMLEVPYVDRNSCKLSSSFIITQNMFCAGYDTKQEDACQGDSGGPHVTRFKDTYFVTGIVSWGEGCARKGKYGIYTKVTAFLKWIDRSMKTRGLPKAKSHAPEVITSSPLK
T2 sequence (P00742 41-179 limits assumed): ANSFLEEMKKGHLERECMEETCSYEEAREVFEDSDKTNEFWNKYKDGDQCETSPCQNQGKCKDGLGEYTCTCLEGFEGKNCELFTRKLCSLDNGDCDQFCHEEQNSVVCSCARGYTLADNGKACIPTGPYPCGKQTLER
T4 sequence (P04070 212-450 limits assumed): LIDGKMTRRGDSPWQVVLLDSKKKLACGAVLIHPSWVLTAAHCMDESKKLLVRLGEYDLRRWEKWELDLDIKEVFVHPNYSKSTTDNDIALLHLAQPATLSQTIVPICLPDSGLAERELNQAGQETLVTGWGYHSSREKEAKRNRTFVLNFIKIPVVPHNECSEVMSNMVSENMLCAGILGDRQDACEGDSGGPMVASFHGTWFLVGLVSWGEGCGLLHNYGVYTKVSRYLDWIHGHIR
T4 sequence (P04070 43-197 limits assumed): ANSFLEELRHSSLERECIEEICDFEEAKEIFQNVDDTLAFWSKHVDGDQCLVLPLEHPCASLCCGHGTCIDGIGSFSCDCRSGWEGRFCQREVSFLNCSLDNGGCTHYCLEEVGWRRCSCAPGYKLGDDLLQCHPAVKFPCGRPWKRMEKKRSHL

Row | Substance | prolongation of clotting time in PT assay ([1]; 10 μM inhibitor, clotting initiated by TF membranes) | prolongation of clotting time in PT assay ([1]; ca. 20 μM inhibitor) | prolongation of clotting time in APTT assay [2] | Ki ([3]; FVIIa 10 nM, TF1-243 50 nM, nonlinear regression, equation 1, read-out: Ki* with TF.cndot.FVIIa (FIG. 5, representative determination)) | Ki [3, 8] | Ki [4] | Ki [5] | Ki [6] | Ki [7]
1 | TF7I-C: APPI Kunitz domain variant (SEQ ID NO: 33) with Thr11Pro, Met17Leu, Ser19Leu and Gly39Tyr compared to wild type APPI | ~3 fold | 4 fold | greater than 10 fold |  |  |  |  |  | 
2 | VREVCSEQAETGPCRAMISRWYFDVTEGKCAPFFYGGCGGNRNNFDTEEYCMAVCGSA (disulfide 5-55, 14-38, 30-51) [APPI] |  |  |  | 300 nM | 301 ± 44 nM | > 10 µM | > 10 µM | > 10 µM | > 10 µM
3 | first Kunitz domain of TFPI: first Kunitz domain (residues 22-79) of human tissue factor pathway inhibitor (MHSFCAFKADDGPCKAIMKRFFFNIFTRQCEEFIYGGCEGNQNRFESLEECKKMCTRD) |  |  |  |  | ~600 nM |  |  |  | 
